From patent US5747466A, “3-deoxy-3-descladinose derivatives of erythromycins A and B” (Abbott Laboratories, priority 1996, dated 1998)
Like-named read-outs stand apart in the source and are kept apart here.

Assays:
Assay in all cases: In vitro antibacterial activity (MIC), agar dilution
[1] = tested on: STAPHYLOCOCCUS AUREUS CMX 642A; format: cell-based; details: S. aureus CMX 642A; BHI agar, 35-37 °C, 20-24 h
[2] = tested on: ENTEROBACTER AEROGENES ATCC 13048; format: cell-based; details: E. aerogenes ATCC 13048; BHI agar, 35-37 °C, 20-24 h
M[…] ATCC 4698 = format: cell-based, Micrococcus luteus; details: M. luteus ATCC 4698; BHI agar, 35-37 °C, 20-24 h
Procedure: (§1) Representative compounds of the present invention were assayed in vitro for antibacterial activity as follows: Twelve petri dishes containing successive aqueous dilutions of the test compound mixed with 10 mL of sterilized Brain Heart Infusion (BHI) agar (Difco 0418-01-5) were prepared. Each plate was inoculated with 1:100 (or 1:10 for slow-growing strains, such as Micrococcus and Streptococcus) dilutions of up to 32 different microorganisms, using a Steers replicator block. The inoculated plates were incubated at 35°-37° C. for 20 to 24 hours. In addition, a control plate, using BHI agar containing no test compound, was prepared and incubated at the beginning and end of each test.
(§2) An additional plate containing a compound having known susceptibility patterns for the organisms being tested and belonging to the same antibiotic class as the test compound was also prepared and incubated as a further control, as well as to provide test-to-test comparability. Erythromycin A was used for this purpose.
(§3) After incubation, each plate was examined. The minimum inhibitory concentration (MIC) was defined as the lowest concentration of drug yielding no growth, a slight haze, or sparsely isolated colonies on the inoculum spot as compared to the growth control.

M[…] ATCC 9341 = format: cell-based, Micrococcus luteus; details: M. luteus ATCC 9341; BHI agar, 35-37 °C, 20-24 h
Procedure: as §1, §2, §3

PSEUDOMONAS CEPACIA 296I = format: cell-based; details: P. cepacia 296I; BHI agar, 35-37 °C, 20-24 h
STR[…] 508 = format: cell-based, Streptococcus agalactiae; details: S. agalactiae CMX 508; BHI agar, 35-37 °C, 20-24 h
Procedure: as §1, §2, §3

[3] = tested on: PSEUDOMONAS AERUGINOSA DPHD-2862; format: cell-based; details: P. aeruginosa DPHD-2862; BHI agar, 35-37 °C, 20-24 h
ESCHERICHIA COLI H560 = format: cell-based; details: E. coli H560; BHI agar, 35-37 °C, 20-24 h
[4] = tested on: STAPHYLOCOCCUS AUREUS A5177; format: cell-based; details: S. aureus A5177; BHI agar, 35-37 °C, 20-24 h
ESCHERICHIA COLI KNK 437 = format: cell-based
[5] = tested on: STREPTOCOCCUS PYOGENES EES61; format: cell-based; details: S. pyogenes EES61; BHI agar, 35-37 °C, 20-24 h
[6] = tested on: PSEUDOMONAS AERUGINOSA BMH10; format: cell-based; details: P. aeruginosa BMH10; BHI agar, 35-37 °C, 20-24 h
[7] = tested on: STAPHYLOCOCCUS EPIDERMIDIS 3519; format: cell-based
[8] = tested on: MYCOBACTERIUM SMEGMATIS ATCC 114; format: cell-based; details: M. smegmatis ATCC 114; BHI agar, 35-37 °C, 20-24 h
[9] = tested on: PSEUDOMONAS AERUGINOSA DPHD-5263; format: cell-based; details: P. aeruginosa DPHD-5263; BHI agar, 35-37 °C, 20-24 h
[10] = tested on: PSEUDOMONAS AERUGINOSA K799/WT; format: cell-based; details: P. aeruginosa K799/WT; BHI agar, 35-37 °C, 20-24 h
[11] = tested on: STREPTOCOCCUS PYOGENES 930; format: cell-based; details: S. pyogenes 930; BHI agar, 35-37 °C, 20-24 h
[12] = tested on: KLEBSIELLA PNEUMONIAE ATCC 8045; format: cell-based; details: K. pneumoniae ATCC 8045; BHI agar, 35-37 °C, 20-24 h
[13] = tested on: PSEUDOMONAS AERUGINOSA 5007; format: cell-based; details: P. aeruginosa 5007; BHI agar, 35-37 °C, 20-24 h
[14] = tested on: STREPTOCOCCUS PYOGENES PIU 2548; format: cell-based; details: S. pyogenes PIU 2548; BHI agar, 35-37 °C, 20-24 h
[15] = tested on: ACINETOBACTER CALCOACETICUS CMX 669; format: cell-based; details: A. calcoaceticus CMX 669; BHI agar, 35-37 °C, 20-24 h
ESCHERICHIA COLI DC-2 = format: cell-based; details: E. coli DC-2; BHI agar, 35-37 °C, 20-24 h
[16] = tested on: PROVIDENCIA STUARTII CMX 640; format: cell-based
[17] = tested on: STAPHYLOCOCCUS AUREUS A-5278; format: cell-based; details: S. aureus A-5278; BHI agar, 35-37 °C, 20-24 h
[18] = tested on: STAPHYLOCOCCUS AUREUS ATCC 6538P; format: cell-based; details: S. aureus ATCC 6538P; BHI agar, 35-37 °C, 20-24 h
[19] = E. coli KNK 437, BHI agar, 35-37 °C, 20-24 h
[20] = S. epidermidis 3519, BHI agar, 35-37 °C, 20-24 h
[21] = P. stuartii CMX 640, BHI agar, 35-37 °C, 20-24 h

Row | Structure (SMILES) | minimum inhibitory concentration (MIC) [1] | minimum inhibitory concentration (MIC) [2] | minimum inhibitory concentration (MIC) (M[…] ATCC 4698) | minimum inhibitory concentration (MIC) (M[…] ATCC 9341) | minimum inhibitory concentration (MIC) (PSEUDOMONAS CEPACIA 296I) | minimum inhibitory concentration (MIC) (STR[…] 508) | minimum inhibitory concentration (MIC) [3] | minimum inhibitory concentration (MIC) (ESCHERICHIA COLI H560) | minimum inhibitory concentration (MIC) [4] | minimum inhibitory concentration (MIC) [5] | minimum inhibitory concentration (MIC) [6] | minimum inhibitory concentration (MIC) [8] | minimum inhibitory concentration (MIC) [9] | minimum inhibitory concentration (MIC) [10] | minimum inhibitory concentration (MIC) [11] | minimum inhibitory concentration (MIC) [12] | minimum inhibitory concentration (MIC) [13] | minimum inhibitory concentration (MIC) [14] | minimum inhibitory concentration (MIC) (ESCHERICHIA COLI DC-2) | minimum inhibitory concentration (MIC) [17] | also measured
1 | CC[C@H]1OC(=O)[C@H](C)C[C@H](C)[C@@H](O[C@@H]2O[C@H](C)C[C@H](N(C)C)[C@H]2O)[C@](C)(OC)C[C@@H](C)C(=NO)[C@H](C)[C@@H](O)[C@]1(C)O [Ex. 2] | 12.5 | > 100 | 3.1 | 1.56 | > 100 | 0.78 | > 100 | > 100 | 25 | 0.78 | > 100 | 6.2 | > 100 | > 100 | > 100 | > 100 | > 100 | 0.56 | > 100 | > 100 | minimum inhibitory concentration (MIC) (ESCHERICHIA COLI KNK 437; [19]): > 100; minimum inhibitory concentration (MIC) [7, 20]: 12.5; minimum inhibitory concentration (MIC) [15]: > 100; minimum inhibitory concentration (MIC) [16, 21]: > 100
2 | CC[C@H]1OC(=O)[C@H](C)C[C@H](C)[C@@H](O[C@@H]2O[C@H](C)C[C@H](N(C)C)[C@H]2O)[C@](C)(OC)C[C@@H](C)C(=O)[C@H](C)[C@H]2OC(=O)O[C@@]21C [Ex. 3] | 3.1 | > 100 | 0.78 | 0.78 | > 100 | 0.2 | > 100 | > 100 | 3.1 | 0.2 | > 100 | 3.1 | > 100 | > 100 | > 100 | > 100 | > 100 | 0.78 | > 100 | > 100 | minimum inhibitory concentration (MIC) [18]: 6.2; minimum inhibitory concentration (MIC) (ESCHERICHIA COLI KNK 437; [19]): > 100; minimum inhibitory concentration (MIC) [7, 20]: 6.2; minimum inhibitory concentration (MIC) [15]: > 100; minimum inhibitory concentration (MIC) [16, 21]: > 100
3 | CC[C@H]1OC(=O)[C@H](C)[C@@H](O[C@H]2C[C@@](C)(OC)[C@@H](O)[C@H](C)O2)[C@H](C)[C@@H](O[C@@H]2O[C@H](C)C[C@H](N(C)C)[C@H]2O)[C@](C)(O)C[C@@H](C)C(=O)[C@H](C)[C@@H](O)[C@]1(C)O [Ery A, Erythromycin A, reference compound] | 0.2 | > 100 | 0.2 | 0.02 | > 100 | 0.02 | 100 | 25 | 1.56 | 0.02 | 100 | 25 | 100 | 100 | > 100 | 25 | > 100 | 6.2 | 100 | > 100 | minimum inhibitory concentration (MIC) [18]: 0.1; minimum inhibitory concentration (MIC) (ESCHERICHIA COLI KNK 437): 100; minimum inhibitory concentration (MIC) [7]: 0.1; minimum inhibitory concentration (MIC) [16]: > 100
4 | CC[C@H]1OC(=O)[C@H](C)C[C@H](C)[C@@H](O[C@@H]2O[C@H](C)C[C@H](N(C)C)[C@H]2O)[C@](C)(OC)C[C@@H](C)C(=O)[C@H](C)[C@H]2N(CCCCc3ccccc3)C(=O)O[C@]12C [Ex. 4] | 1.56 | > 100 | 1.56 | 1.56 |  | 0.1 | > 100 | 25 | 1.56 | 0.05 | > 100 | 1.56 | 100 | 100 | 6.2 | > 100 | > 100 | 0.2 | 50 | 50 | minimum inhibitory concentration (MIC) [18]: 1.56; minimum inhibitory concentration (MIC) (ESCHERICHIA COLI KNK 437; [19]): > 100; minimum inhibitory concentration (MIC) [7, 20]: 1.56; minimum inhibitory concentration (MIC) [15]: 100; minimum inhibitory concentration (MIC) [16, 21]: > 100
